The values below come from patent US20050112713A1, “Methods of using Fab I and compounds modulating Fab I activity” (Affinium Pharmaceuticals, Inc., priority 1996, published 2005).

Data set [1] deals with T1, E. coli Fab I (Escherichia coli, UniProt P0AEK4). Particulars: cited from earlier work.
Data set [2] concerns the target T2, S. aureus Fab I (Staphylococcus aureus, UniProt Q6GI75).
T2 construct: made in house; host or cells: E. coli
T2 sequence (Q6GI75 1-256): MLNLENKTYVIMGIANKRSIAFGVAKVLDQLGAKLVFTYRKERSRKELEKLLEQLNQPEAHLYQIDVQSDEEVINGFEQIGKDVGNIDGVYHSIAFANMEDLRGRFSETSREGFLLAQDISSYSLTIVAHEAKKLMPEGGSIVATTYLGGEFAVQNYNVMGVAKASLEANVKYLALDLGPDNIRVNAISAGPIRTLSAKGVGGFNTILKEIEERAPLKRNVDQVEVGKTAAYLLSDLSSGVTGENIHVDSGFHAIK
Briefly: Kinetic characterization of native S. aureus Fab I (substrates, mode of inhibition). It is filed as biochemical. The method, then: (§1) Crotonoyl CoA was used as the substrate for Fab I and all activity measurements were based on a decrease in absorbance at 340 nm due to the utilization of NADH (FIG. 1). All assays were performed with 100 mM NaADA, pH 6.5 buffer. Acyl-CoA inhibition data was performed in the presence of 1 mM crotonoyl CoA and 1 mM NADH.
(§2) However, studies performed at pH 6.0-7.0 with the native enzyme illustrated a sequential mechanistic pattern and kinetic parameters resulting from these studies indicated no overt change in either magnitude or kinetic mechanism. Thus the His10 tagged Fab I behaved distinctly from native Fab I enzyme.

Data set [3] deals with T2, S. aureus Fab I. As to the kind of experiment: Inhibition of non his tagged (native) Fab I by saturated fatty acyl CoA's, NADH consumption at 340 nm. The data set is classed as biochemical. The conditions noted are these: read-out: Mean IC50 (uM) (n = 2), 1 mM crotonoyl CoA and 1 mM NADH, 100 mM NaADA, pH 6.5. On the procedure:
as §1

Data set [4] concerns the target T1, E. coli Fab I. As to the kind of experiment: Kinetic constants of E. coli Fab I for its substrates. It is filed as biochemical. The source says: A diazaborine derivative may be used as a positive control, this should be readily available via a 2 step synthesis with publicly available starting materials using methods known in the art. Test compounds may be added to this assay to determine whether they agonize or antagonize enzymatic activity.

Substrate in data set [5]: C/C=C/C(=O)SCCNC(=O)CCNC(=O)[C@H](O)C(C)(C)COP(=O)(O)OP(=O)(O)OC[C@H]1O[C@@H](n2cnc3c(N)ncnc32)[C@H](O)[C@@H]1OP(=O)(O)O
As to the kind of experiment: Kinetic characterization of native S. aureus Fab I (substrates, mode of inhibition). The data set is classed as biochemical, Staphylococcus aureus. The conditions noted are these: other: S. aureus Fab I. On the procedure:
as §1, §2

Usually Km stands for the substrate concentration at which the rate is half of its maximum. The term IC50 denotes the concentration at which inhibition is half-maximal.

Read-outs that look alike come from different tables or passages of the source.

T1 sequence (P0AEK4 whole entry): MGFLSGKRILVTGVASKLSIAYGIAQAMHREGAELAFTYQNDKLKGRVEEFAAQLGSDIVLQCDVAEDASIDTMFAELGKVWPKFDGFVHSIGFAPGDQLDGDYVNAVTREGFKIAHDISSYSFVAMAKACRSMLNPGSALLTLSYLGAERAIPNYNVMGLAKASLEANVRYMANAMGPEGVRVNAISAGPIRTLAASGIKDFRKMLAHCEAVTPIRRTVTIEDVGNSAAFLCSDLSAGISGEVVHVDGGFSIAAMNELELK

`C/C=C/C(=O)SCCNC(=O)CCNC(=O)[C@H](O)C(C)(C)COP(=O)(O)OP(=O)(O)OC[C@H]1O[C@@H](n2cnc3c(N)ncnc32)[C@H](O)[C@@H]1OP(=O)(O)O` [CCA, crotonoyl CoA]: the KCCA was 2.7 mM in data set [1] (E. coli Fab I, Bergler et al 1994) and 2.5 mM in data set [2] (native S. aureus Fab I). Further, in data set [1] (substrate of FAB I activity assay (Bergler et al 1994)), the Michaelis-Menten constant (Km) is 2700 µM.

Take `CCCCCCCCCC(=O)SCCNC(=O)CCNC(=O)C(O)C(C)(C)COP(=O)(O)OP(=O)(O)OC[C@H]1O[C@@H](n2cnc3c(N)ncnc32)[C@H](O)[C@@H]1OP(=O)(O)O` (stereo partly drawn) [n-Decanoyl]: in data set [3], the half-inhibitory concentration (IC50) came out at 226 µM.

For the molecule “Apo-ACP: apo acyl carrier protein, inhibitor of Fab I”, in data set [2] (S. aureus Fab I), the “Mode of inhibition versus NADH” value is “uncompetitive” and the “Mode of inhibition versus crotonoyl CoA” value is given as “competitive”.

Regarding `CCCCCCCCCCCCCC(=O)SCCNC(=O)CCNC(=O)[C@H](O)C(C)(C)COP(=O)(O)OP(=O)(O)OC[C@H]1O[C@@H](n2cnc3c(N)ncnc32)[C@H](O)[C@@H]1OP(=O)(O)O` [Myristoyl], the IC50 in data set [3] turned out to be 23.1 µM.

For the molecule `CCCCCCCC(=O)SCCNC(=O)CCNC(=O)C(O)C(C)(C)COP(=O)(O)OP(=O)(O)OC[C@H]1O[C@@H](n2cnc3c(N)ncnc32)[C@H](O)[C@@H]1OP(=O)(O)O` (stereo partly drawn) [n-Octanoyl], the IC50 in data set [3] is 248 µM.

For `CC(=O)SCCNC(=O)CCNC(=O)[C@H](O)C(C)(C)COP(=O)(O)OP(=O)(O)OC[C@H]1O[C@@H](n2cnc3c(N)ncnc32)[C@H](O)[C@@H]1OP(=O)(O)O` [Acetyl], the IC50 in data set [3] is above 1000 µM.

In the case of `NC(=O)C1=CN([C@@H]2O[C@H](COP(=O)(O)OP(=O)(O)OC[C@H]3O[C@@H](n4cnc5c(N)ncnc54)[C@H](O)[C@@H]3O)[C@@H](O)[C@H]2O)C=CC1` [NADH], the KNADH in data set [4] worked out at 0.01 mM; in data set [2] (native S. aureus Fab I) it was 0.7 mM. Further, the Michaelis-Menten constant (Km) is 13 µM in data set [4] (read-out: Km for NADH) and around 410 µM in data set [2] (S. aureus Fab I, read-out: Km for NADH). Further, the “Kmapp for NADH relative to NADPH” value in data set [2] (S. aureus Fab I) is “approximately 30 fold”. Further, in data set [2] (native S. aureus Fab I), the KiNADH stood at 0.2 mM.

`CCCCCC(=O)SCCNC(=O)CCNC(=O)C(O)C(C)(C)COP(=O)(O)OP(=O)(O)OC[C@H]1O[C@@H](n2cnc3c(N)ncnc32)[C@H](O)[C@@H]1OP(=O)(O)O` (stereo partly drawn) [n-Hexanoyl]: in data set [3], the 50% inhibitory concentration (IC50) is 576 µM.

Take `CCCC(=O)SCCNC(=O)CCNC(=O)[C@H](O)C(C)(C)COP(=O)(O)OP(=O)(O)OC[C@H]1O[C@@H](n2cnc3c(N)ncnc32)[C@H](O)[C@@H]1OP(=O)(O)O` [n-Butyryl]: the half-maximal inhibitory concentration (IC50) in data set [3] is above 1000 µM.

B1: S. aureus Fab I (Staphylococcus aureus subsp. aureus MRSA252) (protein)
chain: MLNLENKTYVIMGIANKRSIAFGVAKVLDQLGAKLVFTYRKERSRKELEKLLEQLNQPEAHLYQIDVQSDEEVINGFEQIGKDVGNIDGVYHSIAFANMEDLRGRFSETSREGFLLAQDISSYSLTIVAHEAKKLMPEGGSIVATTYLGGEFAVQNYNVMGVAKASLEANVKYLALDLGPDNIRVNAISAGPIRTLSAKGVGGFNTILKEIEERAPLKRNVDQVEVGKTAAYLLSDLSSGVTGENIHVDSGFHAIK
notes: made in house; host or cells: E. coli
Turning to B1, the Km in data set [5] turned out to be 2500 µM.
